How the values were obtained:
ALPK1 = ALPK1 (Homo sapiens, UniProt Q96QP1); assay: Screening of small molecule libraries for inhibitory activity against ALPK1 (binding, kinase and cell-based cytokine secretion assays); format: biochemical; settings: performance in the binding and kinase assays and in at least two cell-based assays
Description: An ALPK1 inhibitor was identified by screening libraries of small molecules for inhibitory activity against ALPK1. Various assays were used to screen the libraries including binding assays, kinases assays, and cell-based assays for cytokine secretion.

[1] = test system: DSS-induced colitis model; assay: DSS-induced colitis model, body weight; format: in vivo; settings: female wild type FVC mice, 3% DSS day 0 to day 5, then 1 mg/kg IP daily in DMSO vs DMSO alone
Protocol: Mice were treated with 3% DSS from day 0 to day 5 then changed to drinking water and injected IP with either MI6C (1 mg/kg) dissolved in DMSO (n=6) or DMSO alone (n=5) daily.
The ability of MI6 to ameliorate inflammation in the DSS-induced colitis model was evaluated as follows. 8 weeks old female wild type FVC mice were treated with 3% DSS (Sodium salt, MW 40K-50K, from Affymetrix) from day 0 to day 5. The mice were then changed to drinking water. Mice were injected intraperitoneally (IP) with either MI6 (1 mg/kg) dissolved in DMSO (n=6) or DMSO alone (n=5) daily. Animals were weighed daily.

Sequence of ALPK1 (Q96QP1 whole entry): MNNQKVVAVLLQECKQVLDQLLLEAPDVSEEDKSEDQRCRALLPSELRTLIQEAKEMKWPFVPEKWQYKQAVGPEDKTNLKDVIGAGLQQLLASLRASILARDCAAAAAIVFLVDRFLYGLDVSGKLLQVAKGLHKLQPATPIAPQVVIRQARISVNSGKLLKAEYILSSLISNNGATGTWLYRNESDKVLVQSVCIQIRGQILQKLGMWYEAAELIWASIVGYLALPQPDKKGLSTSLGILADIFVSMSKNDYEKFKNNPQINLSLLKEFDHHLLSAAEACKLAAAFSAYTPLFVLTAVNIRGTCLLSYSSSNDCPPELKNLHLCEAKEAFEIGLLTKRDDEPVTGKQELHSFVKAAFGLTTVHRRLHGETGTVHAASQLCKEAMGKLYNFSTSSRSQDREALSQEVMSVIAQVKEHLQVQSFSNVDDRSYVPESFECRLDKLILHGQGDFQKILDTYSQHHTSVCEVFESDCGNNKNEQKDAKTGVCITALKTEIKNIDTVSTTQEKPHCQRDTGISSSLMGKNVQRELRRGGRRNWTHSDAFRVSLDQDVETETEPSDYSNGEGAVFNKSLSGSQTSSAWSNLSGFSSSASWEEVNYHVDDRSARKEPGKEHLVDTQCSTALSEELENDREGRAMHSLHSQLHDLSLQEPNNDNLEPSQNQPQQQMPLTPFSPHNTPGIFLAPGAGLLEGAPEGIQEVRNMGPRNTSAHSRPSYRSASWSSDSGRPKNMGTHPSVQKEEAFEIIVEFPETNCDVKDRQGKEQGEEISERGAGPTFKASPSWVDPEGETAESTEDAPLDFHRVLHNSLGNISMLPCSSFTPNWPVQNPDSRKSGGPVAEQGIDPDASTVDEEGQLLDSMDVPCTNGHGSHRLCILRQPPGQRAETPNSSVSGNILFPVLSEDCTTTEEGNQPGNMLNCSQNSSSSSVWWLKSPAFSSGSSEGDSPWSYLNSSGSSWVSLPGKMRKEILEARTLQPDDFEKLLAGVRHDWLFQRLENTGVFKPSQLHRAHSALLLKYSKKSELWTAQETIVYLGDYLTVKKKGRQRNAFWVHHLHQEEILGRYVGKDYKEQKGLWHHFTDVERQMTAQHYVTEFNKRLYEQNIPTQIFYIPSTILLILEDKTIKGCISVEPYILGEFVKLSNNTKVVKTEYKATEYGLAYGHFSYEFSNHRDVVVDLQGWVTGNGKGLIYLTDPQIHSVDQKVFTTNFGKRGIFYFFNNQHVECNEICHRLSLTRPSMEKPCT

CCCCCCCCCCCCCCCC[n+]1ccn(Cc2ccccc2)c1C [MI6, 1-benzyl-3-hexadecyl-2-methyl-1H-imidazol-3-ium]
inhibitory activity against ALPK1 (ALPK1): identified as an ALPK1 inhibitor | weight gain (change in weight relative to day 0) / recovery [1]: improved weight gain | weight gain (change in weight relative to day 0) / recovery ([1]; listed as MI6C): improves recovery

— US20200207872A1, “METHODS FOR TREATING INFLAMMATION AND RELATED DISEASES AND DISORDERS BY INHIBITING ALPHA PROTEIN KINASE 1” (Shanghai Yao Yuan Biotechnology Co., Ltd., priority 2017, published 2020)
